Assay results from paper PMC9570042, “Impairment of Nucleolin Activity and Phosphorylation by a Trachylobane Diterpene from Psiadia punctulata in Cancer Cells” (International Journal of Molecular Sciences, 2022).

Key:
HeLa cells = assay: Cell cycle analysis by cytofluorimetry (PI staining), HeLa cells; format: cell-based, human; details: 10 μM and 20 μM, 48 h
Description: HeLa cells were seeded at 5.0 × 10^5 in 100 mm culture dishes. The day after, the cells were treated with DMSO and 12 at 10 μM and 20 μM for 48 h. The cell cycle was evaluated by propidium iodide (PI) staining of permeabilized cells (BD FACSCalibur flow cytometer, Becton Dickinson, San Jose, CA, USA). Data from 5000 events per sample were collected. The percentages of the elements in the hypodiploid region and in G0/G1, S, and G2/M phases of the cell cycle were calculated using the CellQuest and MODFIT software, respectively. The apoptosis analysis was carried out according to the protocol described in Annexin V, FITC Apoptosis Detection Kit (Dojindo EU GmbH, Munich, Germany). The samples were detected by Flow Cytometry (BD FACSCalibur flow cytometer, Becton Dickinson, San Jose, CA, USA) and analyzed by BD FACSuite software.

Akt = assay: Western blot of Akt protein in HeLa cells; format: cell-based, human

CC1(CO)CCCC2(C)C1C(O)CC13CC4C(CC12)C4(C(=O)O)C3 (stereo not drawn) [compound 12, 6,19-dihydroxy-ent-trachiloban-17-oic acid]
cell accumulation in the subG0/G1 phase (HeLa cells): dose-dependent manner | levels of Akt protein (Akt): significantly lowers
